# Test results as given in the supplement of paper PMC10307832.
# Key:
# Assay in all cases: relative viability (nuclei count vs DMSO), 5 days (fraction); higher = more cells survive
# HCC-366 = test system: HCC-366
# Method in brief: (§1)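 Values are medians from duplicate plates. Each reflects relative viability, defined as the nuclei count of treated wells over that of vehicle wells. Lung cancer cell lines in 1536-well plates were pin-tool dosed one day after seeding with one drug alone or with a fixed anchor-drug dose plus five library-drug doses (not always all listed) in √10 steps, then fixed, stained and imaged at 4× after 5 days.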
# NCI-H1355 = test system: NCI-H1355
# Method in brief: as §1
# NCI-H2228 = test system: NCI-H2228
# Method in brief: as §1
# NCI-H1993 = test system: NCI-H1993
# Method in brief: as §1
# LOU-NH91 = test system: LOU-NH91
# Method in brief: as §1
# UMC-11 = test system: UMC-11
# Method in brief: as §1
# HCC-44 = test system: HCC-44
# Method in brief: as §1
# LCLC-103H = test system: LCLC-103H
# Method in brief: as §1
# RERF-LC-KJ = test system: RERF-LC-KJ
# Method in brief: as §1
# NCI-H2170 = test system: NCI-H2170
# Method in brief: as §1
# EPLC-272H = test system: EPLC-272H
# Method in brief: as §1
# SK-MES-1 = test system: SK-MES-1
# Method in brief: as §1
# HCC-827 = test system: HCC-827
# Method in brief: as §1
# NCI-H1755 = test system: NCI-H1755
# Method in brief: as §1
# HARA = test system: HARA
# Method in brief: as §1
# NCI-H596 = test system: NCI-H596
# Method in brief: as §1
# PC-3 [JPC-3] = test system: PC-3 [JPC-3]
# Method in brief: as §1
# NCI-H1975 = test system: NCI-H1975
# Method in brief: as §1
# NCI-H1651 = test system: NCI-H1651
# Method in brief: as §1
# NCI-H838 = test system: NCI-H838
# Method in brief: as §1
# SW 1573 = test system: SW 1573
# Method in brief: as §1
# HCC-78 = test system: HCC-78
# Method in brief: as §1
# NCI-H520 = test system: NCI-H520
# Method in brief: as §1
# COR-L 105 = test system: COR-L 105
# Method in brief: as §1
compound,measurement,setting,value
Nc1cccc2c1CN(C1CCC(=O)NC1=O)C2=O (stereo not given) [Lenalidomide] + C[C@@H](Oc1cc(-c2cnn(C3CCNCC3)c2)cnc1N)c1c(Cl)ccc(F)c1Cl [Crizotinib] (partner 1 µM),relative viability,HCC-366; first compound 0.253 µM,0.56
same,relative viability,HCC-366; first compound 0.8 µM,0.499
same,relative viability,HCC-366; first compound 2.53 µM,0.465
same,relative viability,HCC-366; first compound 8 µM,0.499
same,relative viability,NCI-H1355; first compound 0.253 µM,1.04
same,relative viability,NCI-H1355; first compound 0.8 µM,0.956
same,relative viability,NCI-H1355; first compound 2.53 µM,1.26
same,relative viability,NCI-H1355; first compound 8 µM,0.923
same,relative viability,NCI-H2228; first compound 0.253 µM,0.421
same,relative viability,NCI-H2228; first compound 0.8 µM,0.362
same,relative viability,NCI-H2228; first compound 2.53 µM,0.586
same,relative viability,NCI-H2228; first compound 8 µM,0.457
same,relative viability,NCI-H1993; first compound 0.253 µM,0.626
same,relative viability,NCI-H1993; first compound 0.8 µM,0.852
same,relative viability,NCI-H1993; first compound 2.53 µM,0.761
same,relative viability,NCI-H1993; first compound 8 µM,0.777
same,relative viability,LOU-NH91; first compound 0.253 µM,0.73
same,relative viability,LOU-NH91; first compound 0.8 µM,0.732
same,relative viability,LOU-NH91; first compound 2.53 µM,0.714
same,relative viability,LOU-NH91; first compound 8 µM,0.704
same,relative viability,UMC-11; first compound 0.253 µM,0.61
same,relative viability,UMC-11; first compound 0.8 µM,0.573
same,relative viability,UMC-11; first compound 2.53 µM,0.601
same,relative viability,UMC-11; first compound 8 µM,0.644
same,relative viability,HCC-44; first compound 0.253 µM,0.823
same,relative viability,HCC-44; first compound 0.8 µM,0.663
same,relative viability,HCC-44; first compound 2.53 µM,0.857
same,relative viability,HCC-44; first compound 8 µM,0.832
same,relative viability,LCLC-103H; first compound 0.253 µM,1.03
same,relative viability,LCLC-103H; first compound 0.8 µM,0.965
same,relative viability,LCLC-103H; first compound 2.53 µM,1.05
same,relative viability,LCLC-103H; first compound 8 µM,0.904
same,relative viability,RERF-LC-KJ; first compound 0.253 µM,0.8
same,relative viability,RERF-LC-KJ; first compound 0.8 µM,0.778
same,relative viability,RERF-LC-KJ; first compound 2.53 µM,0.827
same,relative viability,RERF-LC-KJ; first compound 8 µM,0.835
same,relative viability,NCI-H2170; first compound 0.253 µM,1.21
same,relative viability,NCI-H2170; first compound 0.8 µM,1.14
same,relative viability,NCI-H2170; first compound 2.53 µM,1.17
same,relative viability,NCI-H2170; first compound 8 µM,1.14
same,relative viability,EPLC-272H; first compound 0.253 µM,0.838
same,relative viability,EPLC-272H; first compound 2.53 µM,0.802
same,relative viability,EPLC-272H; first compound 8 µM,0.8
same,relative viability,SK-MES-1; first compound 0.253 µM,1
same,relative viability,SK-MES-1; first compound 0.8 µM,1.04
same,relative viability,SK-MES-1; first compound 2.53 µM,0.972
same,relative viability,SK-MES-1; first compound 8 µM,0.974
same,relative viability,HCC-827; first compound 0.253 µM,1.02
same,relative viability,HCC-827; first compound 0.8 µM,1.02
same,relative viability,HCC-827; first compound 2.53 µM,0.964
same,relative viability,HCC-827; first compound 8 µM,1.06
same,relative viability,NCI-H1755; first compound 0.253 µM,0.828
same,relative viability,NCI-H1755; first compound 0.8 µM,0.85
same,relative viability,NCI-H1755; first compound 2.53 µM,0.9
same,relative viability,NCI-H1755; first compound 8 µM,0.821
same,relative viability,HARA; first compound 0.253 µM,1.02
same,relative viability,HARA; first compound 0.8 µM,1.05
same,relative viability,HARA; first compound 2.53 µM,1.2
same,relative viability,HARA; first compound 8 µM,1.13
same,relative viability,NCI-H596; first compound 0.253 µM,1.1
same,relative viability,NCI-H596; first compound 0.8 µM,0.912
same,relative viability,NCI-H596; first compound 2.53 µM,1.08
same,relative viability,NCI-H596; first compound 8 µM,0.938
same,relative viability,PC-3 [JPC-3]; first compound 0.253 µM,0.933
same,relative viability,PC-3 [JPC-3]; first compound 0.8 µM,0.936
same,relative viability,PC-3 [JPC-3]; first compound 2.53 µM,1.02
same,relative viability,PC-3 [JPC-3]; first compound 8 µM,1.09
same,relative viability,NCI-H1975; first compound 0.253 µM,1.03
same,relative viability,NCI-H1975; first compound 0.8 µM,0.984
same,relative viability,NCI-H1975; first compound 2.53 µM,1.15
same,relative viability,NCI-H1975; first compound 8 µM,1.01
same,relative viability,NCI-H1651; first compound 0.253 µM,0.875
same,relative viability,NCI-H1651; first compound 0.8 µM,0.884
same,relative viability,NCI-H1651; first compound 2.53 µM,0.865
same,relative viability,NCI-H1651; first compound 8 µM,0.861
same,relative viability,NCI-H838; first compound 0.253 µM,0.847
same,relative viability,NCI-H838; first compound 0.8 µM,0.954
same,relative viability,NCI-H838; first compound 2.53 µM,0.914
same,relative viability,NCI-H838; first compound 8 µM,0.913
same,relative viability,SW 1573; first compound 0.253 µM,0.801
same,relative viability,SW 1573; first compound 0.8 µM,0.844
same,relative viability,SW 1573; first compound 2.53 µM,0.766
same,relative viability,SW 1573; first compound 8 µM,0.772
same,relative viability,HCC-78; first compound 0.253 µM,0.304
same,relative viability,HCC-78; first compound 0.8 µM,0.31
same,relative viability,HCC-78; first compound 2.53 µM,0.351
same,relative viability,HCC-78; first compound 8 µM,0.3
same,relative viability,NCI-H520; first compound 0.253 µM,0.794
same,relative viability,NCI-H520; first compound 0.8 µM,0.777
same,relative viability,NCI-H520; first compound 2.53 µM,0.857
same,relative viability,NCI-H520; first compound 8 µM,0.752
same,relative viability,COR-L 105; first compound 0.253 µM,0.905
same,relative viability,COR-L 105; first compound 0.8 µM,0.716
same,relative viability,COR-L 105; first compound 2.53 µM,0.986
same,relative viability,COR-L 105; first compound 8 µM,1.12
